Read-outs that look alike come from different tables or passages of the source.
Columns and labels:
[1] = target: T1, hCB1R (Homo sapiens, UniProt P21554); assay: Calcium mobilization assay, antagonist mode against CP55,940; format: cell-based; set-up: expressed in transfected cells; host or cells: CHO-RD-HGA16 cells (parental line from Molecular Devices)
Protocol: Calcium Mobilization Assay: CHO-RD-HGA16 cells (Molecular Devices, San Jose, Calif., United States of America) stably expressing the human CB1 receptor were plated into 96-well black-walled assay plates at 25,000 cells/well in 100 pL of Ham's F12 (supplemented with 10% fetal bovine serum, 100 units of penicillin/streptomycin, and 100 µg/mL Normocin) and incubated overnight at 37° C., 5% CO2. Calcium 5 dye (Molecular Devices, San Jose, Calif., United States of America) was reconstituted according to the manufacturer's instructions. The reconstituted dye was diluted 1:40 in prewarmed (37° C.) assay buffer (1x HBSS, 20 mM HEPES, 2.5 mM probenecid, pH 7.4 at 37° C.). Growth medium was removed, and the cells were gently washed with 100 pL of prewarmed (37° C.) assay buffer. The cells were incubated for 45 min at 37° C., 5% CO2 in 200 pL of the diluted Calcium 5 dye solution. […] Serial dilutions of the test compounds were prepared at 10x the desired final concentration in 2.25% BSA/4.5% DMSO/4.5% EtOH/assay buffer. After the dye loading incubation period, the cells were pretreated with 25 pL of the test compound serial dilutions and incubated for 15 min at 37° C. After the pretreatment incubation period, the plate was read with a FLIPR Tetra (Molecular Devices, San Jose, Calif., United States of America). Calcium-mediated changes in fluorescence were monitored every 1 s over a 90 s time period, with the Tetra adding 25 pL of the CP55,940 EC80 concentration at the 10s time point (excitation/emission: 485/525 nm). Relative fluorescence units (RFU) were plotted against the log of compound concentrations. For agonist screens, the above procedure was followed except that cells were pretreated with 2.25% BSA/4.5% DMSO/4.5% EtOH/assay buffer and the Tetra added single concentration dilutions of the test compounds prepared at 10x the desired final concentration in 0.25% BSA/0.5% DMSO/0.5% EtOH/assay buffer. Test compound RFUs were compared to the CP55,940 Emax RFUs to generate % Emax values.
Data Analysis: For calcium mobilization experiments, data were fit to a three-parameter logistic curve to generate IC50 values (GraphPad Prism 6.0, Graphpad Software, San Diego, Calif., United States of America).

[2] = target: T2, mouse CB1R (Mus musculus, UniProt P47746); assay: [35S]GTPγS binding assay in mouse cerebellum membranes; format: biochemical
T2 construct: membranes (10 μg protein) from either ICR mouse cerebellum mice; from tissue; host or cells: cerebellum membranes of ICR mice
T2 sequence (P47746 whole entry): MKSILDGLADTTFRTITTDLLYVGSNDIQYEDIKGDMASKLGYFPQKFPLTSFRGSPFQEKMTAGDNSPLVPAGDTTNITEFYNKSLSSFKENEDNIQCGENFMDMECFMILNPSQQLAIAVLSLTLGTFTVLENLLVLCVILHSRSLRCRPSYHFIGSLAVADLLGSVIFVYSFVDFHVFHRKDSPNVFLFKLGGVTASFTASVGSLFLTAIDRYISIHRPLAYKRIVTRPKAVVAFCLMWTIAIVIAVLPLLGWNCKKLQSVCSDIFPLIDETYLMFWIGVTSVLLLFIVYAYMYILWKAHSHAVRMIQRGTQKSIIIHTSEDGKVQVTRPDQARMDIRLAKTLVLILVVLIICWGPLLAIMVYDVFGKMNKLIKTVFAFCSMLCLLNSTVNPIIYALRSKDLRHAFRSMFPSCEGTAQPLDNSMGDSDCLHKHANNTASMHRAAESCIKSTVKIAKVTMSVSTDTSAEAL
Protocol: (§1) [^35S]GTPγS Binding Assay: For receptor signaling, membranes (10 μg protein) from either ICR mouse cerebellum mice (6-8 weeks old; Enviga
(§2) Non-specific binding was determined by adding 30 μM unlabeled GTPyS. Concentration response curves for allosteric modulators were conducted in the presence of CP55,940 (100 nM or 1 μM) to calculate 1050 values.
(§3) For [^35S]GTPyS experiments, data were normalized to maximal CP55,940 (100 nM) stimulation in the absence of test compound (i.e., vehicle=100%).
Select compounds were evaluated in the CP55,940-induced [^35S]GTPyS binding assays using mouse cerebellum membrane at two CP55,940 concentrations, 100 nM and 1μM.

[3] = target: T1, hCB1R; assay: [35S]GTPγS binding assay in HEK cells stably expressing human CB1R; format: biochemical; set-up: expressed in transfected cells; host or cells: HEK (HEK293) cells, membranes; conditions: [CP] = 100 nM, mean (95% confidence interval), read-out: hCB1R [35S]GTPγS binding assay IC50
Protocol: as §1, §2, §3

[4] = CHO cells expressing human CB1R, against CP55,940 (100 nM), mean ± SEM, read-out: hCB1R Calcium assay IC50
[5] = Tables 4-6, CP55,940 concentration not stated, mean (95% confidence interval), read-out: mCB1R [35S]GTPγS binding assay IC50

T1 sequence (P21554 whole entry): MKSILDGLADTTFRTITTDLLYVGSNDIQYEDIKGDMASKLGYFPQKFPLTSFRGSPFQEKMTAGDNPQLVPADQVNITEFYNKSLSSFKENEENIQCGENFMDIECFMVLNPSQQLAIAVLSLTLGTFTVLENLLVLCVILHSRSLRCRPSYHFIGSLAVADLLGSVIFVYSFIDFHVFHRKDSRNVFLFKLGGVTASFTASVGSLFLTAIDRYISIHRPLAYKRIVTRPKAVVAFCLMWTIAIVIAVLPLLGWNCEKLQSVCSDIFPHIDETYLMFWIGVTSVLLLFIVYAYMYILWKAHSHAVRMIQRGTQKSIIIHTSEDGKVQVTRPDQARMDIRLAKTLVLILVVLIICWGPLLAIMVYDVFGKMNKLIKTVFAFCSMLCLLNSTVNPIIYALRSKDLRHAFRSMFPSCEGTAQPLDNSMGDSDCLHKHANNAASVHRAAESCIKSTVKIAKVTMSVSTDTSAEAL

Row | Compound | IC50 [1, 4] [nM] | IC50 [1] [nM] | further results
1 | 3-(4-Chlorophenyl)-1-[2-(3-methoxyphenyl)ethyl]urea [Compound 55] | 228 ± 45 |  | IC50 [2, 5]: 3720 nM
2 | O=C(Nc1ccc(Cl)cc1)N[C@@H]1C[C@H]1c1ccccc1 (racemic) [Compound 15, trans-1-(4-Chlorophenyl)-3-(2-phenylcyclopropyl)urea] | 1220 ± 188 |  | IC50 [3]: > 10000 nM
3 | O=C(Nc1ccc(Cl)cc1)N[C@@H]1C[C@@H]1c1ccccc1 (relative stereo) [Compound 16, cis-1-(4-Chlorophenyl)-3-(2-phenylcyclopropyl)urea] | > 10000 |  | IC50 [3]: > 10000 nM
4 | O=C(NC[C@@H]1C[C@H]1c1ccccc1)Nc1ccc(Cl)cc1 (relative stereo) [Compound 43, trans-1-(4-Chlorophenyl)-3-[(2-phenylcyclopropyl)methyl]urea] | 2610 ± 548 |  | 
5 | COc1ccc(-c2cccc(N3CCCC3)n2)cc1NC(=O)Nc1ccc(Cl)cc1 [Compound 6, 3-(4-Chlorophenyl)-1-{2-methoxy-5-[6-(pyrrolidin-1-yl)pyridin-2-yl]phenyl}urea] | 1270 |  | IC50 [3]: > 10000 nM
6 | O=C(Nc1ccc(Cl)cc1)Nc1csc(-c2ccccc2)c1 [Compound 13, 1-(4-Chlorophenyl)-3-(5-phenylthiophen-3-yl)urea] | 60 ± 8 |  | IC50 [3]: 888 nM
7 | O=C(Nc1ccc(Cl)cc1)Nc1ccc(-c2cccc(F)c2)s1 [Compound 19, 1-(4-Chlorophenyl)-3-[5-(3-fluorophenyl)thiophen-2-yl]urea] | 39 ± 6 |  | IC50 [3]: 425 nM
8 | O=C(Nc1ccc(Cl)cc1)Nc1ccc(-c2cccc(Cl)c2)s1 [Compound 22, 1-(4-Chlorophenyl)-3-[5-(3-chlorophenyl)thiophen-2-yl]urea] | 40 ± 7 |  | IC50 [3]: 553 nM
9 | O=C(Nc1ccc(Cl)cc1)Nc1ccc(-c2ccc(Cl)cc2)s1 [Compound 23, 1-(4-Chlorophenyl)-3-[5-(4-chlorophenyl)thiophen-2-yl]urea] | 43 ± 7 |  | IC50 [3]: 774 nM
10 | O=C(Nc1ccc(Cl)cc1)Nc1ccc(-c2ccc(Cl)c(Cl)c2)s1 [Compound 24, 1-(4-Chlorophenyl)-3-[5-(3,4-dichlorophenyl)thiophen-2-yl]urea] | 111 ± 14 |  | IC50 [3]: 1720 nM
11 | O=C(NCCCc1ccccc1)Nc1ccc(Cl)cc1 [Compound 37, 3-(4-Chlorophenyl)-1-(3-phenylpropyl)urea] | 3700 ± 481 |  | 
12 | O=C(NCC(F)(F)c1ccccc1)Nc1ccc(Cl)cc1 [Compound 39, 3-(4-Chlorophenyl)-1-(2,2-difluoro-2-phenylethyl)urea] | 1580 ± 328 |  | 
13 | O=C(NCC1(c2ccccc2)CC1)Nc1ccc(Cl)cc1 [Compound 41, 1-(4-Chlorophenyl)-3-[(1-phenylcyclopropyl)methyl]urea] | 5160 ± 1150 |  | 
14 | O=C(NCCc1ccccc1)Nc1ccc(Cl)cc1 [Compound 44, 3-(4-Chlorophenyl)-1-(2-phenylethyl)urea] |  | 193 ± 35 | 
15 | CC(C)(C)c1ccc(CCNC(=O)Nc2ccc(Cl)cc2)cc1 [Compound 45, 1-[2-(4-tert-Butylphenyl)ethyl]-3-(4-chlorophenyl)urea] |  | 573 ± 105 | 
16 | O=C(NCCc1ccc(-c2ccccc2)cc1)Nc1ccc(Cl)cc1 [Compound 46, 3-(4-Chlorophenyl)-1-[2-(4-phenylphenyl)ethyl]urea] |  | 897 ± 167 | 
17 | O=C(NCCc1ccc([N+](=O)[O-])cc1)Nc1ccc(Cl)cc1 [Compound 48, 3-(4-Chlorophenyl)-1-[2-(4-nitrophenyl)ethyl]urea] |  | 87 ± 12 | IC50 [2, 5]: 780 nM
18 | COc1cc(CCNC(=O)Nc2ccc(Cl)cc2)ccc1O [Compound 49, 3-(4-Chlorophenyl)-1-[2-(4-hydroxy-3-methoxyphenyl)ethyl]urea] |  | > 10000 | 
19 | CN(C)c1cccc(CCNC(=O)Nc2ccc(Cl)cc2)c1 [Compound 50, 3-(4-Chlorophenyl)-1-{2-[3-(dimethylamino)phenyl]ethyl}urea] |  | 1680 ± 284 | IC50 [2]: 592 nM
20 | CN(C)c1ccc(CCNC(=O)Nc2ccc(Cl)cc2)cc1 [Compound 51, 3-(4-Chlorophenyl)-1-{2-[4-(dimethylamino)phenyl]ethyl}urea] |  | 323 ± 88 | IC50 [2]: 1590 nM
21 | CS(=O)(=O)c1ccc(CCNC(=O)Nc2ccc(Cl)cc2)cc1 [Compound 52, 3-(4-Chlorophenyl)-1-[2-(4-methanesulfonylphenyl)ethyl]urea] |  | > 10000 | 
22 | COc1ccccc1CCNC(=O)Nc1ccc(Cl)cc1 [Compound 53, 3-(4-Chlorophenyl)-1-[2-(2-methoxyphenyl)ethyl]urea] |  | 1620 ± 248 | 
23 | COc1cccc(CCNC(=O)Nc2ccc(Cl)cc2)c1 [Compound 54, 3-(4-Chlorophenyl)-1-[2-(3-methoxyphenyl)ethyl]urea] |  | 485 ± 93 | 
24 | COc1ccc(CCNC(=O)Nc2ccc(Cl)cc2)cc1OC [Compound 56, 3-(4-Chlorophenyl)-1-[2-(3,4-dimethoxyphenyl)ethyl]urea] |  | 1860 ± 319 | 
25 | O=C(NCCc1ccc(O)cc1)Nc1ccc(Cl)cc1 [Compound 58, 3-(4-Chlorophenyl)1-[2-(4-hydroxyphenyl)ethyl]urea] |  | > 10000 | 

Row | Compound | IC50 [1, 4] [nM] | IC50 [1] [nM] | further results
26 | Cc1ccc(CCNC(=O)Nc2ccc(Cl)cc2)cc1 [Compound 59, 3-(4-Chlorophenyl)1-[2-(4-methylphenyl)ethyl]urea] |  | 137 ± 21 | 
27 | Cc1cccc(CCNC(=O)Nc2ccc(Cl)cc2)c1 [Compound 60, 3-(4-Chlorophenyl)1-[2-(3-methylphenyl)ethyl]urea] |  | 45 ± 9 | IC50 [2, 5]: 4180 nM
28 | O=C(NCCc1ccccc1F)Nc1ccc(Cl)cc1 [Compound 61, 3-(4-Chlorophenyl)1-[2-(2-fluorophenyl)ethyl]urea] |  | 174 ± 27 | 
29 | O=C(NCCc1cccc(F)c1)Nc1ccc(Cl)cc1 [Compound 62, 3-(4-Chlorophenyl)-1-[2-(3-fluorophenyl)ethyl]urea] |  | 53 ± 9 | IC50 [2, 5]: 1520 nM
30 | O=C(NCCc1ccc(F)cc1)Nc1ccc(Cl)cc1 [Compound 63, 3-(4-Chlorophenyl)1-[2-(4-fluorophenyl)ethyl]urea] |  | 108 ± 19 | 
31 | O=C(NCCc1ccc(F)c(F)c1)Nc1ccc(Cl)cc1 [Compound 64, 3-(4-Chlorophenyl)-1-[2-(3,4-difluorophenyl)ethyl]urea] |  | 47 ± 5 | 
32 | O=C(NCCc1c(F)cc(F)cc1F)Nc1ccc(Cl)cc1 [Compound 65, 3-(4-Chlorophenyl)-1-[2-(2,4,6-trifluorophenyl)ethyl]urea] |  | 81 ± 9 | 
33 | O=C(NCCc1c(F)c(F)c(F)c(F)c1F)Nc1ccc(Cl)cc1 [Compound 66, 3-(4-Chlorophenyl)1-[2-(2,3,4,5,6-pentafluorophenyl)ethyl]urea] |  | 34 ± 7 | 
34 | O=C(NCCc1ccccc1Cl)Nc1ccc(Cl)cc1 [Compound 67, 3-(4-Chlorophenyl)1-[2-(2-chlorophenyl)ethyl]urea] |  | 237 ± 35 | 
35 | O=C(NCCc1ccc(Cl)cc1Cl)Nc1ccc(Cl)cc1 [Compound 69, 3-(4-Chlorophenyl)1-[2-(2,4-dichlorophenyl)ethyl]urea] |  | 174 ± 34 | 
36 | O=C(NCCc1c(F)cccc1Cl)Nc1ccc(Cl)cc1 [Compound 70, 3-(4-Chlorophenyl)1-[2-(2-chloro-6-fluorophenyl)ethyl]urea] |  | 408 ± 66 | 
37 | O=C(NCCc1ccc(Br)cc1)Nc1ccc(Cl)cc1 [Compound 71, 3-(4-Chlorophenyl)1-[2-(4-bromophenyl)ethyl]urea] |  | 151 ± 20 | 
38 | N#Cc1ccc(CCNC(=O)Nc2ccc(Cl)cc2)cc1 [Compound 72, 3-(4-Chlorophenyl)1-[2-(4-cyanophenyl)ethyl]urea] |  | 443 ± 53 | 
39 | O=C(NCCc1ccccc1C(F)(F)F)Nc1ccc(Cl)cc1 [Compound 73, 3-(4-Chlorophenyl)-1-{2-[2-(trifluoromethyl)phenyl]ethyl}urea] |  | 143 ± 34 | 
40 | O=C(NCCc1cccc(C(F)(F)F)c1)Nc1ccc(Cl)cc1 [Compound 74, 3-(4-Chlorophenyl)-1-{2-[3-(trifluoromethyl)phenyl]ethyl}urea] |  | 32 ± 7 | IC50 [2, 5]: 766 nM
41 | O=C(NCCc1ccc(C(F)(F)F)cc1)Nc1ccc(Cl)cc1 [Compound 75, 3-(4-Chlorophenyl)-1-{2-[4-(trifluoromethyl)phenyl]ethyl}urea] |  | 194 ± 38 | 
42 | O=C(NCCc1ccncc1)Nc1ccc(Cl)cc1 [Compound 76, 3-(4-Chlorophenyl)-1-[2-(pyridin-4-yl)ethyl]urea] | > 10000 |  | 
43 | O=C(NCCc1cccnc1)Nc1ccc(Cl)cc1 [Compound 77, 3-(4-Chlorophenyl)-1-[2-(pyridin-3-yl)ethyl]urea] | > 10000 |  | 
44 | O=C(NCCc1ccccn1)Nc1ccc(Cl)cc1 [Compound 78, 3-(4-Chlorophenyl)-1-[2-(pyridin-2-yl)ethyl]urea] | 3630 ± 687 |  | 
45 | Cc1ccc(CCNC(=O)Nc2ccc(Cl)cc2)o1 [Compound 79, 1-(4-Chlorophenyl)-3-[2-(5-methylfuran-2-yl)ethyl]urea] | 255 ± 40 |  | IC50 [2, 5]: 2780 nM
46 | CN1CCN(CCNC(=O)Nc2ccc(Cl)cc2)CC1 [Compound 80, 3-(4-Chlorophenyl)-1-[2-(4-methylpiperazin-1-yl)ethyl]urea] | > 10000 |  | 
47 | O=C(NCCN1CCCCC1)Nc1ccc(Cl)cc1 [Compound 81, 3-(4-Chlorophenyl)-1-[2-(piperidin-1-yl)ethyl]urea] | > 10000 |  | 
48 | O=C(NCCN1CCOCC1)Nc1ccc(Cl)cc1 [Compound 82, 3-(4-Chlorophenyl)-1-[2-(morpholin-4-yl)ethyl]urea] | > 10000 |  | 
49 | O=C(NCCN1CCCC1)Nc1ccc(Cl)cc1 [Compound 83, 1-(4-Chlorophenyl)-3-[2-(pyrrolidin-1-yl)ethyl]urea] | > 10000 |  | 
50 | CC(=O)NCCNC(=O)Nc1ccc(Cl)cc1 [Compound 84, N-(2-{[(4-Chlorophenyl)carbamoyl]amino}ethyl)acetamide] | 1830 ± 362 |  | 

Reference: US20220332695A1, “UREA DERIVATIVES AS CB1 ALLOSTERIC MODULATORS” (RTI INTERNATIONAL, priority 2019, published 2022)
